Laboratory results taken from ChEMBL document CHEMBL1201862, “PubChem BioAssay data set” (2004).
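In this assay, cells in 96-well plates receive the compound at five concentrations for 48 hours. Endpoints are linearly interpolated between the surrounding concentrations. GI50 marks 50% less growth.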 Activity calls are given as the source filed them. No stated cut-off is given here; in the data, active = GI50 up to about 1.1 µM and inactive = higher.

Experiments:
Test in all cases: NCI-60 cell line screen, 48 h
[1] = tested on: KM12
[2] = tested on: Malme-3M
[3] = tested on: OVCAR-5
[4] = tested on: SK-OV-3
[5] = tested on: RXF 393
[6] = tested on: UO-31
[7] = tested on: HCT-15
[8] = tested on: COLO 205
[9] = tested on: TK-10
[10] = tested on: HCT-116
[11] = tested on: A549
[12] = tested on: SF-295
[13] = tested on: UACC-257
[14] = tested on: NCI-H460
[15] = tested on: HT-29
[16] = tested on: SN12C
[17] = tested on: OVCAR-3
[18] = tested on: RPMI-8226
[19] = tested on: SK-MEL-2
[20] = tested on: U-251
[21] = tested on: MDA-MB-435
[22] = tested on: M14
[23] = tested on: EKVX
[24] = tested on: PC-3
[25] = tested on: SNB-19
[26] = tested on: BT-549
[27] = tested on: HCC 2998
[28] = tested on: UACC-62
[29] = tested on: CCRF-CEM
[30] = tested on: NCI-H226
[31] = tested on: T47D
[32] = tested on: MDA-N
[33] = tested on: HL-60
[34] = tested on: SK-MEL-5
[35] = tested on: SF-268
[36] = tested on: HOP-62
[37] = tested on: SK-MEL-28
[38] = tested on: MDA-MB-231
[39] = tested on: ACHN
[40] = tested on: HOP-92
[41] = tested on: SF-539
[42] = tested on: CAKI-1
[43] = tested on: OVCAR-4
[44] = tested on: OVCAR-8
[45] = tested on: K562
[46] = tested on: Hs-578T
[47] = tested on: NCI/ADR-RES
[48] = tested on: 786-0
[49] = tested on: IGROV-1
[50] = tested on: DU-145
[51] = tested on: LOX IMVI
[52] = tested on: NCI-H23
[53] = tested on: SW-620
[54] = tested on: SNB-75
[55] = tested on: MCF7
[56] = tested on: MOLT-4
[57] = tested on: NCI-H522
[58] = tested on: A498

`COc1cc(C(=O)Nc2c3ccccc3nc3ccccc23)cc(OC)c1OC` was tested, and the GI50 [1] was > 100 µM (inactive), the GI50 [2] was > 78.3 µM (inactive) and the GI50 [3] was > 100 µM (inactive). For the same molecule, the GI50 [4] was > 100 µM (inactive), the GI50 [5] was 14.2 µM (inactive) and the GI50 [6] was 40.3 µM (inactive). The GI50 [7] was over 100 µM, the GI50 [8] was > 100 µM (inactive) and the GI50 [9] was > 100 µM (inactive). The GI50 [10] was > 67.1 µM (inactive), the GI50 [11] was > 100 µM (inactive) and the GI50 [12] was 35.6 µM (inactive). The GI50 [13] was > 100 µM (inactive), the GI50 [14] was > 70.8 µM (inactive) and the GI50 [15] was > 100 µM (inactive). The GI50 [16] was > 100 µM (inactive), the GI50 [17] was 98.6 µM (inactive) and the GI50 [18] was > 100 µM (inactive). For the same molecule, the GI50 [19] was > 100 µM (inactive), the GI50 [20] was > 100 µM (inactive) and the GI50 [21] was > 74.5 µM (inactive). The GI50 [22] was > 53.6 µM (inactive), the GI50 [23] was > 59 µM (inactive) and the GI50 [24] was > 100 µM (inactive). The GI50 [25] was > 95.1 µM (inactive), the GI50 [26] was > 100 µM (inactive) and the GI50 [27] was > 100 µM (inactive). For the same molecule, the GI50 [28] was > 34.7 µM (inactive), the GI50 [29] was 20.5 µM (inactive) and the GI50 [30] was > 100 µM (inactive). For the same molecule, the GI50 [31] was > 100 µM (inactive), the GI50 [32] was 30 µM (inactive) and the GI50 [33] was 3.64 µM (inactive). The GI50 [34] was > 100 µM (inactive), the GI50 [35] was 28.9 µM (inactive) and the GI50 [36] was > 36.3 µM (inactive). For the same molecule, the GI50 [37] was > 100 µM (inactive), the GI50 [38] was > 91.8 µM (inactive) and the GI50 [39] was > 50.1 µM (inactive). For the same molecule, the GI50 [40] was 50.1 µM (inactive), the GI50 [41] was > 100 µM (inactive) and the GI50 [42] was > 22.1 µM (inactive). For the same molecule, the GI50 [43] was > 100 µM (inactive), the GI50 [44] was > 59.7 µM (inactive) and the GI50 [45] was > 54.3 µM (inactive). The GI50 [46] was > 100 µM (inactive), the GI50 [47] was > 93.5 µM (inactive) and the GI50 [48] was > 100 µM (inactive). The GI50 [49] was > 100 µM (inactive), the GI50 [50] was > 100 µM (inactive) and the GI50 [51] was > 100 µM (inactive). For the same molecule, the GI50 [52] was > 100 µM (inactive), the GI50 [53] was > 100 µM (inactive) and the GI50 [54] was 0.885 µM (active). The GI50 [55] was > 100 µM (inactive), the GI50 [56] was 23.2 µM (inactive) and the GI50 [57] was 42 µM (inactive).

In the case of `COC1(OC)C[C@H](C)[C@@]23O[C@]24c2cc(O)c5c(c2N[C@H]3C#C/C=C\C#C[C@]14O)C(=O)c1ccccc1C5=O`, the GI50 [2] is reported as 0.005 µM (active), the GI50 [3] is reported as 0.00692 µM (active) and the GI50 [4] is reported as < 0.001 µM (active). For the same molecule, the GI50 [5] was 0.005 µM (active), the GI50 [6] was 0.005 µM (active) and the GI50 [7] was 0.005 µM. The GI50 [8] was 0.005 µM (active), the GI50 [9] was 0.0245 µM (active) and the GI50 [10] was 0.005 µM (active). The GI50 [11] was 0.005 µM (active), the GI50 [12] was 0.005 µM (active) and the GI50 [13] was 0.005 µM (active). For the same molecule, the GI50 [14] was < 0.001 µM (active), the GI50 [15] was 0.00655 µM (active) and the GI50 [16] was 0.00136 µM (active). The GI50 [17] was 0.0431 µM (active), the GI50 [18] was 0.005 µM (active) and the GI50 [20] was 0.005 µM (active). The GI50 [21] was 0.00703 µM (active), the GI50 [22] was 0.005 µM (active) and the GI50 [23] was 0.0286 µM (active). For the same molecule, the GI50 [24] was 0.005 µM (active), the GI50 [25] was 0.005 µM (active) and the GI50 [26] was 0.00519 µM (active). For the same molecule, the GI50 [27] was 0.00805 µM (active), the GI50 [58] was 0.00119 µM (active) and the GI50 [28] was 0.005 µM (active). For the same molecule, the GI50 [29] was < 0.001 µM (active), the GI50 [30] was 0.005 µM (active) and the GI50 [31] was 0.005 µM (active). The GI50 [32] was 0.00597 µM (active), the GI50 [34] was 0.005 µM (active) and the GI50 [35] was 0.005 µM (active). The GI50 [36] was 0.005 µM (active), the GI50 [37] was 0.00775 µM (active) and the GI50 [38] was 0.0142 µM (active). For the same molecule, the GI50 [40] was 0.00107 µM (active), the GI50 [42] was 0.005 µM (active) and the GI50 [43] was 0.0964 µM (active). For the same molecule, the GI50 [44] was 0.005 µM (active), the GI50 [45] was 0.005 µM (active) and the GI50 [46] was 0.0705 µM (active). For the same molecule, the GI50 [47] was 0.005 µM (active), the GI50 [48] was 0.005 µM (active) and the GI50 [49] was 0.0148 µM (active). For the same molecule, the GI50 [50] was 0.005 µM (active), the GI50 [51] was 0.005 µM (active) and the GI50 [52] was 0.005 µM (active). The GI50 [53] was 0.005 µM (active), the GI50 [54] was 0.005 µM (active) and the GI50 [55] was 0.005 µM (active). For the same molecule, the GI50 [57] was 0.00635 µM (active).
